The structures appear in SMILES notation.

One may read the IC50 as the point on the concentration scale where inhibition reaches its midpoint.

One assay addresses T1, ATM kinase (Homo sapiens, UniProt Q13315).
T1 construct: endogenous in cells; host or cells: HT29 cells (ECACC #85061109)
As to the kind of experiment: Assay a) ATM cellular potency (pATM Ser1981 in X-ray irradiated HT29 cells). It is filed as cell-based. The conditions noted are these: HT29 cells, 1 h compound, X-ray ~600 cGy, pATM Ser1981; may be geometric mean of several tests; read-out: Assay a) ATM Cell IC50. The method, then:
The following assays were used to measure the effects of the compounds of the present invention: a) ATM cellular potency assay; b) PI3K cellular potency assay; c) mTOR cellular potency assay; d) ATR cellular potency assay. During the description of the assays, generally: • i. […] IC50 values were calculated using a smart fitting model in Genedata. […] Assay a): ATM Cellular Potency Rationale:
Most ATM molecules in the cell are rapidly phosphorylated on this site after doses of radiation as low as 0.5 Gy, and binding of a phosphospecific antibody is detectable after the introduction of only a few DNA double-strand breaks in the cell.
The rationale of the pATM assay is to identify inhibitors of ATM in cells. HT29 cells are incubated with test compounds for 1 hr prior to X-ray-irradiation. 1 h later the cells are fixed and stained for pATM (Ser1981). The fluorescence is read on the arrayscan imaging platform.
The following morning compounds of Formula (I) in 100% DMSO were added to assay plates by acoustic dispensing. After 1 h incubation at 37° C. and 5% CO2, plates (up to 6 at a time) were irradiated using the X-RAD 320 instrument (PXi) with equivalent to ˜600 cGy. Plates were returned to the incubator for a further 1 h. […] Then 20 μl of 0.1% Triton X100 in PBS was added and incubated for 20 minutes at r.t., to permeabalise cells. Then the plates were washed once with 50 μl/well PBS, using a Biotek EL405 plate washer.
After 1 h incubation at r.t., the plates were washed three times with 50 μl/well PBS, using a Biotek EL405 plate washer, and plates were sealed and kept in PBS at 4° C. until read. Plates were read using an ArrayScan VTI instrument, using an XF53 filter with 10× objective.

A further assay deals with PI3K-α (Homo sapiens, UniProt P42336). As to the kind of experiment: Assay c) PI3K cellular potency (phospho-Akt T308 ELISA in BT474 cells). In kind it is cell-based. As to conditions: BT474 cells, 2 h, phospho-AKT T308; may be geometric mean of several tests; read-out: Assay c) PI3Kα Cell IC50. From the text:
Assay c): PI3K Cellular Potency
This assay was used to measure PI3K-α inhibition in cells. PDK1 was identified as the upstream activation loop kinase of protein kinase B (Akt 1), which is essential for the activation of PKB. Activation of the lipid kinase phosphoinositide 3 kinase (PI3K) is critical for the activation of PKB by PDK1.
Following ligand stimulation of receptor tyrosine kinases, PI3K is activated, which converts PIP2 to PIP3, which is bound by the PH domain of PDK1 resulting in recruitment of PDK1 to the plasma membrane where it phosphorylates AKT at Thr308 in the activation loop.
The aim of this cell-based mode of action assay is to identify compounds that inhibit PDK activity or recruitment of PDK1 to membrane by inhibiting PI3K activity. Phosphorylation of phospho-Akt (T308) in BT474c cells following treatment with compounds for 2 h is a direct measure of PDK1 and indirect measure of PI3K activity.
BT474 cells (human breast ductal carcinoma, ATCC HTB-20) were seeded into black 384 well plates (Costar, #3712) at a density of 5600 cells/well in DMEM containing 10% FBS and 1% glutamine and allowed to adhere overnight.
The following morning compounds in 100% DMSO were added to assay plates by acoustic dispensing. After a 2 h incubation at 37° C. and 5% CO2, the medium was aspirated and the cells were lysed with a buffer containing 25 mM Tris, 3 mM EDTA, 3 mM EGTA, 50 mM sodium fluoride, 2 mM Sodium orthovanadate, 0.27M sucrose, 10 mM β-glycerophosphate, 5 mM sodium pyrophosphate, 0.5% Triton X-100 and complete protease inhibitor cocktail tablets (Roche #04 693 116 001, used 1 tab per 50 ml lysis buffer).
After 20 minutes, the cell lysates were transferred into ELISA plates (Greiner #781077) which had been pre-coated with an anti total-AKT antibody in PBS buffer and non-specific binding was blocked with 1% BSA in PBS containing 0.05% Tween 20. Plates were incubated over night at 4° C. The next day the plates were washed with PBS buffer containing 0.05% Tween 20 and further incubated with a mouse monoclonal anti-phospho AKT T308 for 2 h. Plates were washed again as above before addition of a horse anti-mouse-HRP conjugated secondary antibody. Following a 2 h incubation at r.t., plates were washed and QuantaBlu substrate working solution (Thermo Scientific #15169, prepared according to provider's instructions) was added to each well. The developed fluorescent product was stopped after 60 minutes by addition of Stop solution to the wells. Plates were read using a Tecan Safire plate reader using 325 nm excitation and 420 nm emission wavelengths respectively. Except where specified, reagents contained in the Path Scan Phospho AKT (Thr308) sandwich ELISA kit from Cell Signalling (#7144) were used in this ELISA assay.
(ELISA stands for enzyme-linked immunosorbent assay.)

T1 sequence (Q13315 whole entry): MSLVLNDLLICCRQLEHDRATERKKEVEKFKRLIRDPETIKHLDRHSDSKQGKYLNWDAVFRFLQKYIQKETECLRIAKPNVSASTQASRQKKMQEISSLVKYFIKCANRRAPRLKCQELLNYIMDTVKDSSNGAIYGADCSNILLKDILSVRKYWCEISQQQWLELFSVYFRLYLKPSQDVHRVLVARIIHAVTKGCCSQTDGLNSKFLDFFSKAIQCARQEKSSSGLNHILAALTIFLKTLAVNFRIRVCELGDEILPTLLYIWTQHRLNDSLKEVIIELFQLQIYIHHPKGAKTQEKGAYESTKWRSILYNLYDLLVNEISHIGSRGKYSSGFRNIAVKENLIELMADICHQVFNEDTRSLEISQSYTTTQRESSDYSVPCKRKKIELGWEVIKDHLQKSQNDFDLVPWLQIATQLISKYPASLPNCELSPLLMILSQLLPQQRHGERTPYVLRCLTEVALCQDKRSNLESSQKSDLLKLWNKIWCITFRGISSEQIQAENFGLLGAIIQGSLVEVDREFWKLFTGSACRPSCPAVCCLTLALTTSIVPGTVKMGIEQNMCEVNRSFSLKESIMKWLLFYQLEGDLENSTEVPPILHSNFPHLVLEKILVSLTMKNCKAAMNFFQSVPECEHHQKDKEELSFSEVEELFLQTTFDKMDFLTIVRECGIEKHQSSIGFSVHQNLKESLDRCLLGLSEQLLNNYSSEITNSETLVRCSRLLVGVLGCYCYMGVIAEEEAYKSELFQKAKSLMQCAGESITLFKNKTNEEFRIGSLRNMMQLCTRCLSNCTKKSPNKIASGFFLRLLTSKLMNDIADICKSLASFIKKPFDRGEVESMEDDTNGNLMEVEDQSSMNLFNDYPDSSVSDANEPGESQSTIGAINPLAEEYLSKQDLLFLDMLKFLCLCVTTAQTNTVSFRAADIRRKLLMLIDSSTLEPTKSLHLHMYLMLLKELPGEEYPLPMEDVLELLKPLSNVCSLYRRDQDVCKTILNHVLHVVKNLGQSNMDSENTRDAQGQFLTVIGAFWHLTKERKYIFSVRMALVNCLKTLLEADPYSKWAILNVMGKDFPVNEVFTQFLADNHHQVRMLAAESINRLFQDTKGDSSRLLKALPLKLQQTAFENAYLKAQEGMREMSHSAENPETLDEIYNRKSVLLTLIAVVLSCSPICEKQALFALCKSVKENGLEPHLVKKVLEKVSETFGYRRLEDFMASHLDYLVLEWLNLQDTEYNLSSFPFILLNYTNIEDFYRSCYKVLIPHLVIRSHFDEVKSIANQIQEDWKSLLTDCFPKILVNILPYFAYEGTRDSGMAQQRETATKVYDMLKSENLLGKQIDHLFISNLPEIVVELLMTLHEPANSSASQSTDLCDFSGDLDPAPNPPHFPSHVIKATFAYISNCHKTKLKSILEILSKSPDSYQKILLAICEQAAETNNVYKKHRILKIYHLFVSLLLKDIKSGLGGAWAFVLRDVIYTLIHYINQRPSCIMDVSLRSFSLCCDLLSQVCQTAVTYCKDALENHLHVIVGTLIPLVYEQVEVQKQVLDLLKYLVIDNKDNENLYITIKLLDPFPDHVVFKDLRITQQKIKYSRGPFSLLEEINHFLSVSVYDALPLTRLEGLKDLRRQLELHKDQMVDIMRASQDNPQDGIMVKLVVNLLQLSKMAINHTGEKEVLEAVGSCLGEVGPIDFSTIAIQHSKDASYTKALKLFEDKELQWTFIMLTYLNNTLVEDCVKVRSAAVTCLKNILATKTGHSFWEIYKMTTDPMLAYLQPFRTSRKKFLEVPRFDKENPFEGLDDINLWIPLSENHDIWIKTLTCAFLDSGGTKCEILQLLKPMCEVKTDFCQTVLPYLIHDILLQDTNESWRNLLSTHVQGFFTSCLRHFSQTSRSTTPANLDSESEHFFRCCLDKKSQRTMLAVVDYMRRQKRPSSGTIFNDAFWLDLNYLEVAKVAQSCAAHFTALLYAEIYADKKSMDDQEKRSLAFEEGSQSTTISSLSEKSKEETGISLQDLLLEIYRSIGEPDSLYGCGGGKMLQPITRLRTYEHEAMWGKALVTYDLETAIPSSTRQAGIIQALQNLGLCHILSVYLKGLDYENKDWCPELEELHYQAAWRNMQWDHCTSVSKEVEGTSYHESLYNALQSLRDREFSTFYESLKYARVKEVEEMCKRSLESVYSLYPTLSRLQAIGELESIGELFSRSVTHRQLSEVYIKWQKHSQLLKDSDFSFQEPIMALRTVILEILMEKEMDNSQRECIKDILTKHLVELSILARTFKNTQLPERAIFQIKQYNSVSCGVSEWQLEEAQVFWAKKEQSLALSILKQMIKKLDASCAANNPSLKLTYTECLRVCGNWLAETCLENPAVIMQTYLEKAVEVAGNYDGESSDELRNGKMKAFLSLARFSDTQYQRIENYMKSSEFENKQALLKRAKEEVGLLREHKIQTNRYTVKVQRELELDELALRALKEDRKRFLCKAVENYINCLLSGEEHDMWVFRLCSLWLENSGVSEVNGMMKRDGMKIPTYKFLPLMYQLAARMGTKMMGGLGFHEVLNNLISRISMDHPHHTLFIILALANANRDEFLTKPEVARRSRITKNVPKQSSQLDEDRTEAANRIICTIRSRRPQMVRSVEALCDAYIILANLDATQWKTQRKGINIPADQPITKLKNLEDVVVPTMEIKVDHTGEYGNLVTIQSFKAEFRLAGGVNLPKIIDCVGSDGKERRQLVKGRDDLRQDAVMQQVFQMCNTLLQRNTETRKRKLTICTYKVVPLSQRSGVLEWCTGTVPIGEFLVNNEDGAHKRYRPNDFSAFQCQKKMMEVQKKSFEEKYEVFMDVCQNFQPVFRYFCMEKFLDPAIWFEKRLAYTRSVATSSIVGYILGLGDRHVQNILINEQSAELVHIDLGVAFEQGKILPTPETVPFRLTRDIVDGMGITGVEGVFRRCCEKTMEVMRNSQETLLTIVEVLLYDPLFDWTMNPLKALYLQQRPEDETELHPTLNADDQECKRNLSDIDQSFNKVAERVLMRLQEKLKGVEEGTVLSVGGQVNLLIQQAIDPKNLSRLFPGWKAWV
Chain of PI3K-α (P42336 whole entry): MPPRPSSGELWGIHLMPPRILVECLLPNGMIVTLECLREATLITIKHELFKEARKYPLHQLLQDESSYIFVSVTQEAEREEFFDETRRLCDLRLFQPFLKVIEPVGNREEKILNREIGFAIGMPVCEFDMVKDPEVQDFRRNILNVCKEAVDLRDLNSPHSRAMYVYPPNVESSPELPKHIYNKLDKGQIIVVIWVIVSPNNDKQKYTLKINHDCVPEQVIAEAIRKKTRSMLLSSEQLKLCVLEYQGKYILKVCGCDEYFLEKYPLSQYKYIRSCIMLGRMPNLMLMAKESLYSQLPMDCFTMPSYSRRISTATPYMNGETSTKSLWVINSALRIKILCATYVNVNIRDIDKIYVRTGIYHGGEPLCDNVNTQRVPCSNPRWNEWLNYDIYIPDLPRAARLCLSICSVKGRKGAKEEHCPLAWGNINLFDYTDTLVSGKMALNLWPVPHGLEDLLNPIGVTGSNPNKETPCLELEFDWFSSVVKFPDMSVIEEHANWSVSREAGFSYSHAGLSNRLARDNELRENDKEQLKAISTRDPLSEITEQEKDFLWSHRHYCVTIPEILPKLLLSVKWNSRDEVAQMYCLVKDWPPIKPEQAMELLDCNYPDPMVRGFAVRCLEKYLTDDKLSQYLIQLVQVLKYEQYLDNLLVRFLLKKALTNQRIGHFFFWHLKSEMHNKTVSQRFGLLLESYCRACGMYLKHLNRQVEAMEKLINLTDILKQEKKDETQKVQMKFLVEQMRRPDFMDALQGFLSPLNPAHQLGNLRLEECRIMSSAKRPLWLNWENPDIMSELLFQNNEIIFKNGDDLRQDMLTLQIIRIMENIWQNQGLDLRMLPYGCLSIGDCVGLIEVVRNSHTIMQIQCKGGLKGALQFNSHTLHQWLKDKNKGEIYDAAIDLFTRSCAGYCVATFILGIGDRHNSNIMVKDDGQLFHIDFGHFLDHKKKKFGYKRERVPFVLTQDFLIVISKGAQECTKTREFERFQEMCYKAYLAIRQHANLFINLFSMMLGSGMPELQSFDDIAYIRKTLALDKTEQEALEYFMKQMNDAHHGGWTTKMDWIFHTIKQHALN

For the compound `CC(C)n1c(=O)n(C)c2cnc3ccc(-c4ccc(OCCCN(C)C)nc4F)cc3c21` [Example 10, 8-[6-[3-(dimethylamino)propoxy]-2-fluoro-3-pyridyl]-1-isopropyl-3-methyl-imidazo[4,5-c]quinolin-2-one], the IC50 on ATM kinase was 0.686 nM; at PI3K-α it was 6180 nM.

As for `CC(C)n1c(=O)n(C)c2cnc3ccc(-c4ccc(OCCCN5CCCCC5)nc4F)cc3c21` [Example 9, 8-[2-Fluoro-6-[3-(1-piperidyl)propoxy]-3-pyridyl]-1-isopropyl-3-methyl-imidazo[4,5-c]quinolin-2-one], the half-inhibitory concentration (IC50) on ATM kinase was under 0.453 nM; at PI3K-α, 5750 nM.

Consider `CC(C)n1c(=O)[nH]c2cnc3cc(F)c(-c4ccc(OCCCN5CCCCC5)nc4)cc3c21` [Example 18, 7-Fluoro-1-isopropyl-8-[6-[3-(1-piperidyl)propoxy]-3-pyridyl]-3H-imidazo[4,5-c]quinolin-2-one], for which the IC50 on ATM kinase was 3.14 nM; on PI3K-α, over 30000 nM.

`CC(C)n1c(=O)n(C)c2cnc3cc(F)c(-c4ccc(OCCCN5CCCC5)nc4)cc3c21` [Example 3, 7-Fluoro-1-isopropyl-3-methyl-8-[6-(3-pyrrolidin-1-ylpropoxy)-3-pyridyl]imidazo[4,5-c]quinolin-2-one]: the IC50 at ATM kinase was 0.824 nM; at PI3K-α it was 11400 nM.

In the case of `CC(C)n1c(=O)n(C)c2cnc3cc(F)c(-c4ccc(OCCCN5CCCCC5)nc4)cc3c21` [Example 2, 7-Fluoro-1-isopropyl-3-methyl-8-[6-[3-(1-piperidyl)propoxy]-3-pyridyl]imidazo[4,5-c]quinolin-2-one], the IC50 at ATM kinase was 0.787 nM; on PI3K-α, over 12000 nM.

`CC(C)n1c(=O)n(C)c2cnc3ccc(-c4ccc(OCCCN5CCC5)nc4)cc3c21` [Example 8, 8-[6-[3-(Azetidin-1-yl)propoxy]-3-pyridyl]-1-isopropyl-3-methyl-imidazo[4,5-c]quinolin-2-one]: the IC50 is 0.698 nM on ATM kinase and 661 nM at PI3K-α.

Take `CC(C)n1c(=O)n(C)c2cnc3cc(F)c(-c4ccc(OCCCN5CCCC5)nc4F)cc3c21` [Example 13, 7-fluoro-8-[2-fluoro-6-(3-pyrrolidin-1-ylpropoxy)-3-pyridyl]-1-isopropyl-3-methyl-imidazo[4,5-c]quinolin-2-one]: the IC50 at ATM kinase came to 1.32 nM; at PI3K-α, 22900 nM.

For the compound `CC(C)n1c(=O)n(C)c2cnc3cc(F)c(-c4ccc(OCCC[N+]5([O-])CCCCC5)nc4)cc3c21` [Metabolite A, 7-Fluoro-1-isopropyl-3-methyl-8-[6-[3-(1-oxidopiperidin-1-ium-1-yl)propoxy]-3-pyridyl]imidazo[4,5-c]quinolin-2-one], the IC50 worked out at 35 nM on ATM kinase and 27800 nM at PI3K-α.

For `CC(C)n1c(=O)n(C)c2cnc3ccc(-c4ccc(OCCCN(C)C)nc4)cc3c21` [Example 6, 8-[6-[3-(dimethylamino)propoxy]-3-pyridyl]-1-isopropyl-3-methyl-imidazo[4,5-c]quinolin-2-one], the figures for the IC50 on ATM kinase and on PI3K-α were 0.398 nM and 184 nM, respectively.

On to `CC(C)n1c(=O)n(C)c2cnc3cc(F)c(-c4ccc(OCCCN5CCC5)nc4F)cc3c21` [Example 16, 8-[6-[3-(azetidin-1-yl)propoxy]-2-fluoro-3-pyridyl]-7-fluoro-1-isopropyl-3-methyl-imidazo[4,5-c]quinolin-2-one], for which the half-inhibitory concentration (IC50) on ATM kinase was 2.29 nM; on PI3K-α, 9080 nM.

`CC(C)n1c(=O)n(C)c2cnc3ccc(-c4ccc(OCCCN5CCCC5)nc4F)cc3c21` [Example 12, 8-[2-fluoro-6-(3-pyrrolidin-1-ylpropoxy)-3-pyridyl]-1-isopropyl-3-methyl-imidazo[4,5-c]quinolin-2-one]: the IC50 on ATM kinase stood at 0.799 nM; on PI3K-α, 2890 nM.

Regarding `CC(C)n1c(=O)n(C)c2cnc3cc(F)c(-c4ccc(OCCCN5CCCCC5)nc4F)cc3c21` [Example 14, 7-fluoro-8-[2-fluoro-6-[3-(1-piperidyl)propoxy]-3-pyridyl]-1-isopropyl-3-methyl-imidazo[4,5-c]quinolin-2-one], the IC50 on ATM kinase is 3.51 nM; at PI3K-α, over 30000 nM.

Consider `CC(C)n1c(=O)n(C)c2cnc3ccc(-c4ccc(OCCCN5CCCC5)nc4)cc3c21` [Example 7, 1-isopropyl-3-methyl-8-[6-(3-pyrrolidin-1-ylpropoxy)-3-pyridyl]imidazo[4,5-c]quinolin-2-one], for which the values for the half-inhibitory concentration (IC50) at ATM kinase and on PI3K-α were 0.256 nM and 222 nM, respectively.

In the case of `CC(C)n1c(=O)n(C)c2cnc3cc(F)c(-c4ccc(OCCCN5CCC5)nc4)cc3c21` [Example 4, 8-[6-[3-(azetidin-1-yl)propoxy]-3-pyridyl]-7-fluoro-1-isopropyl-3-methyl-imidazo[4,5-c]quinolin-2-one], the IC50 was determined as 1.59 nM on ATM kinase and 4520 nM at PI3K-α.
